For the test, the system named is BDF1 mice, P388 leukemia ip, median survival T/C. Kind of test: NCI In Vivo Anticancer Drug Screen. Data for tumor model P388 Leukemia (intraperitoneal) in B6D2F1 (BDF1) mice. The settings on record: endpoint: median survival time, higher = longer survival. Summed up:
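Transplantable tumour in mice; compound vs vehicle dosing; survival scored; ratio of treated to control reported.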

Setting [1] is: dose: 12.5 mg/kg/injection, schedule: Q04DX003 (ip), vehicle: saline with Tween-80.
Where [2] appears, read: dose: 25.0 mg/kg/injection, schedule: Q04DX003 (ip), vehicle: saline with Tween-80.
[3] abbreviates: dose: 50.0 mg/kg/injection, schedule: Q04DX003 (ip), vehicle: saline with Tween-80.

Where “and” joins values, the source holds several entries; their conditions need not be identical. Equal entries are not always repeated. Inconclusive results and toxic doses are left out.

Take `O=NN(CCCl)C(=O)Nc1ccc(CCO)cc1`: the T/C (dose: 0.12 mg/kg/injection, schedule: Q04DX003 (ip), vehicle: saline) was 100 % of control; the T/C (dose: 0.13 mg/kg/injection, schedule: Q01DX009 (ip), vehicle: Klucel (hydroxypropylcellulose) (HPC)) is 112 % of control; the T/C (dose: 0.2 mg/kg/injection, schedule: Q01DX009 (ip), vehicle: Klucel (hydroxypropylcellulose) (HPC)) is 91 % of control; the T/C (dose: 0.2 mg/kg/injection, schedule: Q01DX009 (ip), vehicle: alcohol) was 100 % of control; the T/C (dose: 0.25 mg/kg/injection, schedule: Q04DX003 (ip), vehicle: saline) was 104 % of control; the T/C (dose: 0.3 mg/kg/injection, schedule: Q01DX009 (ip), vehicle: alcohol) is 108 % of control. Further, the T/C (dose: 0.5 mg/kg/injection, schedule: Q01DX009 (ip), vehicle: alcohol) was 150 % of control; the T/C (dose: 0.5 mg/kg/injection, schedule: Q01DX009 (ip), vehicle: other) is 181 % of control; the T/C (dose: 0.5 mg/kg/injection, schedule: Q04DX003 (ip), vehicle: saline + alcohol) was 155 % of control; the T/C (dose: 0.5 mg/kg/injection, schedule: Q04DX003 (ip), vehicle: saline) was 117 % of control; the T/C (dose: 1.0 mg/kg/injection, schedule: Q01DX009 (ip), vehicle: Klucel (hydroxypropylcellulose) (HPC)) is 150 % of control; the T/C (dose: 1.0 mg/kg/injection, schedule: Q01DX009 (ip), vehicle: alcohol) was 183 % of control. In addition, the T/C runs as follows: (dose: 1.0 mg/kg/injection, schedule: Q01DX009 (ip), vehicle: other) 181 % of control; (dose: 1.0 mg/kg/injection, schedule: Q04DX003 (ip), vehicle: saline + alcohol) 188 % of control; (dose: 1.65 mg/kg/injection, schedule: Q01DX009 (ip), vehicle: Klucel (hydroxypropylcellulose) (HPC)) 200 % of control; (dose: 1.65 mg/kg/injection, schedule: Q01DX009 (ip), vehicle: saline) 266 % of control; (dose: 2.0 mg/kg/injection, schedule: Q01DX009 (ip), vehicle: alcohol) 237 % of control; (dose: 2.0 mg/kg/injection, schedule: Q01DX009 (ip), vehicle: other) 254 % of control. The T/C (dose: 2.0 mg/kg/injection, schedule: Q04DX003 (ip), vehicle: saline + alcohol) is 255 % of control; the T/C (dose: 2.5 mg/kg/injection, schedule: Q01DX009 (ip), vehicle: Klucel (hydroxypropylcellulose) (HPC)) was 257 % of control; the T/C (dose: 2.5 mg/kg/injection, schedule: Q01DX009 (ip), vehicle: saline with Tween-80) was 240 % of control; the T/C (dose: 2.5 mg/kg/injection, schedule: Q01DX009 (ip), vehicle: saline) was 333 % of control; the T/C (dose: 3.75 mg/kg/injection, schedule: Q01DX009 (ip), vehicle: Klucel (hydroxypropylcellulose) (HPC)) is 289 % of control; the T/C (dose: 3.75 mg/kg/injection, schedule: Q01DX009 (ip), vehicle: saline) is 333 % of control. In addition, the T/C by setting is: (dose: 4.0 mg/kg/injection, schedule: Q01DX009 (ip), vehicle: alcohol) 250 % of control; (dose: 4.0 mg/kg/injection, schedule: Q01DX009 (ip), vehicle: other) 272 % of control; (dose: 4.0 mg/kg/injection, schedule: Q04DX003 (ip), vehicle: saline + alcohol) 322 % of control; (dose: 5.0 mg/kg/injection, schedule: Q01DX009 (ip), vehicle: saline with Tween-80) 270 % of control; (dose: 6.25 mg/kg/injection, schedule: Q01DX009 (ip), vehicle: saline) 180 % of control; (dose: 6.25 mg/kg/injection, schedule: Q04DX003 (ip), vehicle: saline + alcohol) 272 % of control. In addition, the T/C by setting is: (dose: 10.0 mg/kg/injection, schedule: Q01DX009 (ip), vehicle: saline with Tween-80) 110 % of control; (dose: 12.5 mg/kg/injection, schedule: Q01DX009 (ip), vehicle: saline) 100 % of control; (dose: 12.5 mg/kg/injection, schedule: Q04DX003 (ip), vehicle: saline + alcohol) 272 % of control; (dose: 25.0 mg/kg/injection, schedule: Q04DX003 (ip), vehicle: saline sonified) 90 % of control.
As to `O=P(OCc1ccccc1)(N(CCCl)CCCl)N1CCN(P(=O)(OCc2ccccc2)N(CCCl)CCCl)CC1` (stereo unspecified), the T/C runs as follows: (dose: 132.0 mg/kg/injection, schedule: Q04DX003 (ip), vehicle: saline with Tween-80) 172 % of control; (dose: 200.0 mg/kg/injection, schedule: Q04DX003 (ip), vehicle: saline with Tween-80) 154 % of control and 172 % of control.
With `COc1cc(-c2ccc(NC(=O)NC3CC3)c(OC)c2)ccc1NC(=O)NC1CC1`, the T/C reads like this: (dose: 50.0 mg/kg/injection, schedule: Q01DX005 (ip), vehicle: saline with Tween-80) 89 % of control; (dose: 100.0 mg/kg/injection, schedule: Q01DX005 (ip), vehicle: saline with Tween-80) 91 % of control.
Take `COC(=O)C(N)CSCSC` (stereo unspecified): the T/C (dose: 100.0 mg/kg/injection, schedule: Q04DX003 (ip), vehicle: saline) is 90 % of control; the T/C (dose: 200.0 mg/kg/injection, schedule: Q04DX003 (ip), vehicle: saline) is 100 % of control; the T/C (dose: 400.0 mg/kg/injection, schedule: Q04DX003 (ip), vehicle: saline) was 90 % of control.
As to `c1cn[nH]c1`, the T/C is, setting by setting: (dose: 4.0 mg/kg/injection, schedule: Q01DX010 (ip), vehicle: water) 100 % of control; (dose: 8.0 mg/kg/injection, schedule: Q01DX010 (ip), vehicle: water) 90 % of control.
On to `COc1ccccc1CN1CCCN(Cc2ccccc2OC)C1c1ccc(N(CCCl)CCCl)cc1C`, for which the T/C reads like this: (dose: 65.0 mg/kg/injection, schedule: Q01DX009 (ip), vehicle: Klucel (hydroxypropylcellulose) (HPC)) 95 % of control; (dose: 100.0 mg/kg/injection, schedule: Q01DX009 (ip), vehicle: Klucel (hydroxypropylcellulose) (HPC)) 109 % of control.
Consider `Nc1ncc(C(=O)O)c(N)n1`, for which the T/C runs as follows: (dose: 0.75 mg/kg/injection, schedule: Q01DX009 (ip), vehicle: saline with Tween-80) 87 % of control; (dose: 1.5 mg/kg/injection, schedule: Q01DX009 (ip), vehicle: saline with Tween-80) 104 % of control; (dose: 3.0 mg/kg/injection, schedule: Q01DX009 (ip), vehicle: saline with Tween-80) 91 % of control; (dose: 6.25 mg/kg/injection, schedule: Q01DX009 (ip), vehicle: saline with Tween-80) 88 % of control; under setting [1], 100 % of control; (dose: 25.0 mg/kg/injection, schedule: Q01DX009 (ip), vehicle: saline with Tween-80) 111 % of control. The T/C runs as follows: under setting [2], 100 % of control; under setting [3], 100 % of control.
Consider `CN1C(=O)Cc2[nH]ccc2C1=O`, for which the T/C by setting is: (dose: 3.13 mg/kg/injection, schedule: Q04DX003 (ip), vehicle: saline with Tween-80) 106 % of control; (dose: 6.25 mg/kg/injection, schedule: Q04DX003 (ip), vehicle: saline with Tween-80) 109 % of control; under setting [1], 119 % of control and 120 % of control; under setting [2], 118 % of control.
In the case of `CCOC(=O)C(=O)C1CCNC1=O` (stereo unspecified), the T/C by setting is: under setting [1], 100 % of control; under setting [2], 100 % of control; under setting [3], 100 % of control.
Turning to `Cc1ccc(C(O)(c2ccccc2)C2C(c3ccccc3)N2C2CCCCC2)cc1` (stereo unspecified), the T/C is 96 % of control (dose: 50.0 mg/kg/injection, schedule: Q01DX001 (ip), vehicle: saline sonified); 96 % of control (dose: 100.0 mg/kg/injection, schedule: Q01DX001 (ip), vehicle: saline sonified); 92 % of control (dose: 200.0 mg/kg/injection, schedule: Q01DX001 (ip), vehicle: saline sonified).
For `Clc1ccc2c(c1)CN1Cc3cc(Cl)ccc3C2C1`, the T/C is, setting by setting: (dose: 50.0 mg/kg/injection, schedule: Q01DX001 (ip), vehicle: saline with Tween-80) 108 % of control; (dose: 100.0 mg/kg/injection, schedule: Q01DX001 (ip), vehicle: saline with Tween-80) 108 % of control; (dose: 200.0 mg/kg/injection, schedule: Q01DX001 (ip), vehicle: saline with Tween-80) 97 % of control.
